Data from the supplement of paper PMC10307832.

What was measured:
Assay in all cases: relative viability (nuclei count vs DMSO), 5 days (fraction); higher = more cells survive
[1] = compound: CC1=CC(=NN1)NC2=CC(=NC(=N2)/C=C/C3=CC=CC=C3)N4CCN(CC4)C + COc1cccc2cc(-c3nc([C@H]4CC[C@H](C(=O)O)CC4)n4ncnc(N)c34)[nH]c12 [OSI-027] (partner 0.5 µM)
In short: (§1)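 Lung cancer cell lines were pin-tool dosed in 1536-well plates on the day after seeding, with either a lone drug or a fixed anchor-drug dose plus five library-drug doses (not always all listed) in √10 steps. Nuclei were counted on 4× images after 5 days. Relative viability is the ratio of treated-well to vehicle-well nuclei counts, with each value a median of duplicate plates.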

[2] = compound: CC1=CC(=NN1)NC2=CC(=NC(=N2)/C=C/C3=CC=CC=C3)N4CCN(CC4)C + C[C@]1(O)C[C@@H](c2nc(-c3ccc4ccc(-c5ccccc5)nc4c3)c3c(N)nccn32)C1 [Linsitinib] (partner 1 µM)
In short: as §1

[3] = compound: CC(C)C[C@H](NC(=O)[C@H](Cc1ccccc1)NC(=O)c1cnccn1)B(O)O [Bortezomib] + COc1cc2c(Oc3ccc(NC(=O)C4(C(=O)Nc5ccc(F)cc5)CC4)cc3F)ccnc2cc1OCCCN1CCOCC1 [Foretinib] (partner 0.25 µM)
In short: as §1

Row | Cell Line | relative viability ([1]; first compound 0.08 µM) | relative viability ([1]; first compound 0.253 µM) | relative viability ([1]; first compound 0.8 µM) | relative viability ([1]; first compound 2.53 µM) | relative viability ([1]; first compound 8 µM) | relative viability ([2]; first compound 0.08 µM) | relative viability ([2]; first compound 0.253 µM) | relative viability ([2]; first compound 0.8 µM) | relative viability ([2]; first compound 2.53 µM) | relative viability ([2]; first compound 8 µM) | relative viability ([3]; first compound 0.0002 µM) | relative viability ([3]; first compound 0.000632 µM) | relative viability ([3]; first compound 0.002 µM) | relative viability ([3]; first compound 0.006325 µM) | relative viability ([3]; first compound 0.02 µM)
1 | 201T | 0.718 | 0.756 | 0.803 | 0.531 | 0.112 | 1.02 | 1.07 | 1 | 0.897 | 0.819 | 1.05 | 1.11 | 0.793 | 0.297 | 0.172
2 | A549 | – | – | – | – | – | 0.538 | 0.689 | 0.481 | 0.275 | 0.0279 | 0.87 | 1.01 | 0.986 | 0.0286 | 0.0217
3 | A-427 | 0.531 | 0.295 | 0.466 | 0.192 | 0.0905 | 1.2 | 1.16 | 1.09 | 0.87 | 0.305 | 1.02 | 1.1 | 0.932 | 0.483 | 0.122
4 | ABC-1 | 0.453 | 0.54 | 0.644 | 0.179 | 0.143 | 0.787 | 0.983 | 0.724 | 0.581 | 0.173 | 0.917 | 0.874 | 0.284 | 0.229 | 0.204
5 | BEN | 0.294 | 0.264 | 0.271 | 0.244 | 0.162 | 0.953 | 0.955 | 0.96 | 0.76 | 0.194 | 0.494 | 0.866 | 0.769 | 0.572 | 0.356
6 | CAL-12T | 0.666 | 0.651 | 0.447 | 0.14 | 0.12 | 0.756 | 0.69 | 0.979 | 0.49 | 0.214 | 1.18 | 1.07 | 1.08 | 0.743 | 0.154
7 | COR-L23 | 0.817 | 0.753 | 0.67 | 0.361 | 0.0841 | 0.868 | 0.809 | 0.839 | 0.173 | 0.0756 | 0.934 | 0.931 | 0.874 | 0.0924 | 0.0681
8 | COR-L 105 | 0.773 | 0.834 | 0.678 | 0.255 | 0.178 | 0.815 | 1.08 | 1.01 | 0.331 | 0.192 | 0.997 | 1 | 0.995 | 0.262 | 0.255
9 | Calu-6 | – | – | – | – | – | 0.98 | 0.997 | 0.883 | 0.441 | 0.158 | 0.803 | 0.856 | 0.839 | 0.0564 | 0.0507
10 | ChaGo-K-1 | 0.566 | 0.548 | 0.528 | 0.191 | 0.131 | – | – | – | – | – | 0.837 | 0.822 | 0.992 | 0.245 | 0.185
11 | EBC-1 | – | – | – | – | – | 0.852 | 0.874 | 0.923 | 0.71 | 0.317 | 0.11 | 0.106 | 0.0957 | 0.0676 | 0.0605
12 | EKVX | 0.699 | 0.845 | 0.664 | 0.611 | 0.3 | 1.02 | 1.13 | 1.1 | 0.788 | 0.144 | 0.847 | 0.843 | 0.897 | 0.872 | 0.21
13 | EMC-BAC-2 | 0.364 | 0.426 | 0.32 | 0.226 | 0.097 | 0.821 | 0.91 | 0.77 | 0.594 | 0.204 | 0.993 | 1.03 | 1.13 | 0.279 | 0.203
14 | EPLC-272H | 0.305 | 0.277 | 0.231 | 0.202 | 0.171 | 1.11 | 1.32 | 1.06 | 0.675 | 0.367 | 0.7 | 0.506 | 0.148 | 0.0867 | 0.0676
15 | H3255 | 0.582 | 0.541 | 0.579 | 0.589 | 0.382 | 0.95 | 1.09 | 0.975 | 0.886 | 0.391 | 0.763 | 0.994 | 0.935 | 0.638 | 0.283
16 | HARA | 0.361 | 0.474 | 0.649 | 0.252 | 0.0476 | 1.07 | 0.899 | 1.03 | 0.139 | 0.0705 | 0.851 | 0.866 | 0.928 | 0.0716 | 0.0683
17 | HCC-15 | 0.665 | 0.642 | 0.549 | 0.158 | 0.0878 | 0.908 | 0.967 | 0.853 | 0.469 | 0.149 | 0.933 | 1.09 | 0.628 | 0.0908 | 0.0905
18 | HCC-44 | 0.615 | 0.49 | 0.633 | 0.292 | 0.144 | 0.64 | 0.755 | 0.659 | 0.235 | 0.201 | – | – | – | – | –
19 | HCC-78 | 0.325 | 0.357 | 0.387 | 0.343 | 0.198 | 0.42 | 0.568 | 0.494 | 0.391 | 0.152 | 0.505 | 0.577 | 0.492 | 0.432 | 0.254
20 | HCC-366 | 0.833 | 0.618 | 0.875 | 0.0773 | 0.0341 | 0.478 | 1.13 | 0.64 | 0.102 | 0.0084 | 0.917 | 0.889 | 1.01 | 0.627 | 0.0395
21 | HCC-827 | 0.778 | 0.865 | 0.716 | 0.742 | 0.588 | 0.955 | 1.06 | 0.932 | 0.814 | 0.635 | 1.11 | 1.01 | 0.693 | 0.113 | 0.0926

Row | Cell Line | relative viability ([1]; first compound 0.08 µM) | relative viability ([1]; first compound 0.253 µM) | relative viability ([1]; first compound 0.8 µM) | relative viability ([1]; first compound 2.53 µM) | relative viability ([1]; first compound 8 µM) | relative viability ([2]; first compound 0.08 µM) | relative viability ([2]; first compound 0.253 µM) | relative viability ([2]; first compound 0.8 µM) | relative viability ([2]; first compound 2.53 µM) | relative viability ([2]; first compound 8 µM) | relative viability ([3]; first compound 0.0002 µM) | relative viability ([3]; first compound 0.000632 µM) | relative viability ([3]; first compound 0.002 µM) | relative viability ([3]; first compound 0.006325 µM) | relative viability ([3]; first compound 0.02 µM)
22 | HOP-62 | 0.875 | 0.865 | 0.861 | 0.52 | 0.38 | 0.959 | 1.11 | 0.99 | 0.875 | 0.326 | 0.972 | 1.07 | 0.863 | 0.134 | 0.0751
23 | IA-LM | – | – | – | – | – | 0.561 | 0.61 | 0.878 | 0.752 | 0.729 | 1.26 | 1.1 | 1.16 | 0.0393 | 0.0142
24 | LC-2-ad | 0.808 | 0.867 | 0.753 | 0.336 | 0.184 | 0.732 | 0.803 | 0.473 | 0.122 | 0.0815 | 0.913 | 0.899 | 0.814 | 0.244 | 0.203
25 | LCLC-97TM1 | 0.427 | 0.335 | 0.564 | 0.192 | 0.2 | 0.185 | 0.205 | 0.204 | 0.165 | 0.112 | 0.906 | 0.929 | 0.721 | 0.242 | 0.151
26 | LCLC-103H | 0.504 | 0.486 | 0.463 | 0.378 | 0.332 | 1.16 | 1.09 | 1.13 | 1.12 | 0.809 | 0.679 | 0.698 | 0.268 | 0.162 | 0.13
27 | LK-2 | 0.207 | 0.222 | 0.179 | 0.171 | 0.124 | 0.522 | 0.876 | 0.75 | 0.31 | 0.104 | 0.982 | 1.39 | 1.12 | 0.161 | 0.165
28 | LOU-NH91 | 0.767 | 0.842 | 0.742 | 0.699 | 0.507 | 0.953 | 1.01 | 0.98 | 0.775 | 0.501 | 0.863 | 0.867 | 0.328 | 0.258 | 0.243
29 | LU99A | 0.292 | 0.327 | 0.28 | 0.256 | 0.155 | 0.489 | 0.485 | 0.466 | 0.228 | 0.138 | 0.887 | 0.721 | 0.812 | 0.755 | 0.227
30 | LXF-289 | 0.826 | 0.834 | 0.673 | 0.42 | 0.0972 | 0.932 | 1.01 | 0.914 | 0.447 | 0.36 | 0.98 | 0.964 | 0.991 | 0.127 | 0.0671
31 | NCI-H23 | 0.417 | 0.563 | 0.539 | 0.291 | 0.115 | 0.61 | 0.641 | 0.58 | 0.313 | 0.163 | 0.895 | 0.972 | 0.861 | 0.166 | 0.14
32 | NCI-H522 | 0.709 | 0.629 | 0.609 | 0.56 | 0.421 | – | – | – | – | – | – | – | – | – | –
33 | NCI-H1299 | – | – | – | – | – | 0.986 | 0.967 | 1.03 | 0.754 | 0.295 | 1.09 | 1.06 | 1.17 | 0.416 | 0.121
34 | NCI-H1623 | 0.412 | 0.41 | 0.411 | 0.377 | 0.282 | – | – | – | – | – | 0.831 | 0.992 | 0.803 | 0.473 | 0.344
35 | NCI-H1648 | 0.257 | 0.272 | 0.26 | 0.263 | 0.258 | – | – | – | – | – | – | – | – | – | –
36 | NCI-H1650 | 0.645 | 0.782 | 0.624 | 0.154 | 0.0984 | – | – | – | – | – | 1.19 | 1.15 | 0.223 | 0.16 | 0.164
37 | NCI-H1703 | – | – | – | – | – | 0.67 | 0.466 | 1.06 | 0.148 | 0.0677 | 0.324 | 0.342 | 0.211 | 0.153 | 0.176
38 | NCI-H1792 | 0.678 | 0.777 | 0.673 | 0.519 | 0.206 | 0.58 | 0.56 | 0.513 | 0.316 | 0.112 | – | – | – | – | –
39 | NCI-H2170 | 0.759 | 0.728 | 0.683 | 0.377 | 0.189 | – | – | – | – | – | 1.02 | 0.952 | 1.03 | 0.596 | 0.167
40 | NCI-H2342 | 0.557 | 0.594 | 0.662 | 0.577 | 0.381 | – | – | – | – | – | 1.02 | 0.945 | 0.829 | 0.929 | 0.34
41 | SW 900 | 0.493 | 0.58 | 0.489 | 0.259 | 0.0615 | – | – | – | – | – | 0.87 | 0.743 | 0.155 | 0.119 | 0.126
